From US20240117431A1, “STEM-CELL BASED BIOMARKER DISCOVERY” (THE REGENTS OF THE UNIVERSITY OF CALIFORNIA, priority 2020, published 2024) come the findings set out here.

In one assay the target is T1, TgUPRT (wild type) (Toxoplasma gondii, UniProt Q26998).
T1 construct: made in house; host or cells: E. coli BL21(DE3)
In words: Specific activity of TgUPRT variants with uracil analog substrates in vitro (phosphoribosyltransferase, HPLC). Type of assay: biochemical. The following applies: 0.5 μg enzyme in 80 μL, 37° C., 2-5 min, substrates 1 mM, PBS pH 7.4; DMSO none (Uracil, 5-BrVUra), 1.6% (5-EtUra, 5-AU, 5AMU), 3.2% (5-VUra). On the procedure:
Enzyme activity assay: The standard activity assay was performed by incubating 10 μL of free extract or 0.5 μg of pure His-tag enzyme with 1 mM Phosphoribosyl pyrophosphate (PRPP), 1 mM uracil, 5 mM MgCl2 in 50 mM PBS buffer pH 7.4 in a final volume of 80 μL. The reaction mixture was incubated at 37° C. for 2-5 min (300 rpm). Enzyme was inactivated by adding 80 μL of cold methanol in ice-bath and heating for 5 min at 100° C. After centrifugation at 9000×g for 5 min, samples were half-diluted with water and the NMP production was analysed by HPLC to quantitatively measure the reaction products as described below in the analytical methods. All determinations were carried out in triplicate assuming Michaelis-Menten conditions, and the maximum error was below 5%. […]
Substrate specificity studies Enzymatic synthesis of the different pyrimidine nucleoside monophosphate (NMP) derivatives was carried out by incubating 0.5 μg of pure His-tag enzyme with 1 mM PRPP, 1 mM pyrimidine base and 5 mM MgCl2 in 50 mM PBS buffer pH 7.4 (1.6-3.2% v/v DSMO). […] Subsequently, the reaction mixture was processed as described above and the NMP production was analyzed by HPLC.
Analytical methods: The production of NMPs was quantitatively measured with an ACE EXCEL 5 μm CN-ES 250×4.6 mm equilibrated with 100% trimethyl ammonium acetate at a flow rate of 0.8 mL/min. […]

The target of assay [1] is T2, uracil monophosphate synthetase (UMPS) overexpressed in HEK cells (Homo sapiens, UniProt P11172).
T2 construct: expressed in transfected cells; host or cells: HEK cells
T2 sequence (P11172 1-480): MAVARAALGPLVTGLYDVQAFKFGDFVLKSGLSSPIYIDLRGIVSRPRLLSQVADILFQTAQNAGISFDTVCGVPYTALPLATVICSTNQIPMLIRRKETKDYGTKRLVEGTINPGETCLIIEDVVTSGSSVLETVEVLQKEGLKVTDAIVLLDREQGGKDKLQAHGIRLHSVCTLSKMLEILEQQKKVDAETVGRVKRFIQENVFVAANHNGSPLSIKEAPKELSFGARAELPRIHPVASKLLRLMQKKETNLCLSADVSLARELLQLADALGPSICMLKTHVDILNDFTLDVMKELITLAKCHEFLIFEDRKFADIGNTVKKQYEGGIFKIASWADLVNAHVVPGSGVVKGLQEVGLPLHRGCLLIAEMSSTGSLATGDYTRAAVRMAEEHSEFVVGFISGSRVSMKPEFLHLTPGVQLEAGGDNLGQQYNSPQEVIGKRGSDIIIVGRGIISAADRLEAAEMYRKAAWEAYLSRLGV
In words: RNA incorporation with overexpression of UMPS, dot blot. In kind it is cell-based. The following applies: 1 mM, 24 hours, FIG. 12. On the procedure: Analogs were incubated for 24 hours at 1 mM concentration in HEK cells. RNA was extracted and biotinylated using MTSEA-Biotin, followed by dot-blot analysis. Strep-HRP=Streptavidin conjugated Horseradish peroxidase. MeBI=methylene blue staining serving as loading control.

“Also recorded” adds a separate entry of the source.

T1 sequence (Q26998 whole entry): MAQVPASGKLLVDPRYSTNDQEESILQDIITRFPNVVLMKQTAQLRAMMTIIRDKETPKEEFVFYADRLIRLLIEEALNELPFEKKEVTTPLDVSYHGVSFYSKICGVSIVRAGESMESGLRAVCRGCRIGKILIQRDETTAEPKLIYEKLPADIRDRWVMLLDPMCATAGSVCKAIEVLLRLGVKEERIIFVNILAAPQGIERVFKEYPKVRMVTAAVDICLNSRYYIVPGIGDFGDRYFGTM

With `C#Cc1c[nH]c(=O)[nH]c1=O` [compound 1, 5-ethynylpyrimidine-2,4(1H,3H)-dione], the “Specific Activity, TgUPRT” value at TgUPRT (wild type) was “reactive”. Besides, in assay [1], the “incorporation into cellular RNA with UMPS overexpression” value is recorded as “higher amount; also recorded: incorporation”.

Turning to `C=Cc1c[nH]c(=O)[nH]c1=O` [compound 2, 5-Vinylpyrimidine-2,4(1H,3H)-dione], the “Specific Activity, TgUPRT” value on TgUPRT (wild type) is listed as “undetectable activity”. In addition, the “incorporation into cellular RNA with UMPS overexpression” value in assay [1] was “did not result in 2 incorporation into RNA and not”.
